The structures appear in SMILES notation.

The nature of the experiment: Potency (reciprocal of the equipotent molar ratio compared to carbamylcholine), estimated by contracture of the frog rectus abdominis muscle. Type of experiment: functional.
As to `CC(=O)C1=CC[N+](C)(C)CC1`, the Potency is listed as 50.
The same measure for `C[C@H](O)C1CC[N+](C)(C)CC1`: 0.25.
Consider `C[N+]1(C)CC=C(CO)CC1`, for which the Potency was 0.35.
Turning to `C[N+]1(C)CCC(=NO)CC1`, the Potency was 0.0055.
Turning to `C[N+]1(C)CCN(C(=O)C(F)(F)F)CC1`, the Potency is 4.6.
Turning to `CC(=O)N1CC[N+](C)(C)CC1`, the Potency is reported as 2.6.
As to `C[C@H](O)C1=CC[N+](C)(C)CC1`, the Potency was 2.
Turning to `CC(=O)C1CC[N+](C)(C)CC1`, the Potency is reported as 9.1.

Source of the values: ChEMBL document CHEMBL1124053, “Synthesis, pharmacology, and molecular modeling studies of semirigid, nicotinic agonists” (1988).
